From patent publication EP4737486A1, “HYALURONIC ACID DERIVATIVE, AND PREPARATION METHOD THEREFOR AND USE THEREOF” (priority 2023, dated 2025)

Test system: blood
Test: Anticoagulant activity by prothrombin time in rat blood (CoaguChek X)
Design: species or system male SD rats
Conditions: 278 µg/mL in rat blood, n = 3; versus normal saline and no-addition groups
Description: The anticoagulant activity of the compound was assessed by measuring prothrombin time according to the reference [Sulakshan Sulakshana et al., Anesth Essays Res., 2021, 15(4): 341-347].
The experimental method and steps are as follows: • 1) About 2 mL of blood was obtained from the abdominal aorta of male SD rats (8 weeks old). One sample corresponded to one rat, and n = 3. • 2) Each substance was added to the blood at a concentration of 27.8 µg/mL or 278 µg/mL, and mixing was performed (generally, 27.8 µg/mL was used for transfusion). • 3) To assess the anticoagulant effect of the samples, prothrombin time was measured using CoaguChek X (Sekisui Medical).
• 1) Normal saline; • 2) Unfractionated heparin (UFH), sodium heparin injection 5000 units/5 mL, Mochida (average molecular weight: 15000); • 3) Fragmin: low molecular weight heparin, average molecular weight of 5000, 5000 units/5 mL; • 4) Arixtra: […], average molecular weight of 1728 (5 mers), 5000 units/5 mL; • 5) No addition.

SMILES: CO[C@H]1O[C@H](COS(=O)(=O)O)[C@@H](O[C@@H]2O[C@@H](C(=O)O)[C@@H](O[C@H]3O[C@H](COS(=O)(=O)O)[C@@H](O[C@@H]4O[C@H](C(=O)O)[C@@H](O[C@H]5O[C@H](COS(=O)(=O)O)[C@@H](O)[C@H](O)[C@H]5NS(=O)(=O)O)[C@H](O)[C@H]4O)[C@H](OS(=O)(=O)O)[C@H]3NS(=O)(=O)O)[C@H](O)[C@H]2OS(=O)(=O)O)[C@H](O)[C@H]1NS(=O)(=O)O [Arixtra]
- prothrombin time: significantly longer
